Results as given in patent publication US20240116985A1, “STAPLED PEPTIDES AND METHODS THEREOF” (priority 2020, published 2024).

Assay: CHI Log D procedure
Assay type: physicochemical
Details: for chromatographic logD: pH 7.4, CHI Log D; for CHI Log D: pH 7.4

Row | SMILES | chromatographic logD | CHI Log D
1 | CC(=O)N[C@@H](Cc1ccccc1)C(=O)N[C@@H](CC(=O)O)C(=O)N[C@@H](C)C(=O)N[C@]1(C)CCCC=CCOC(=O)N(C)CC[C@@](C)(C(=O)N[C@@H](Cc2ccccc2)C(=O)N[C@@H](Cc2c[nH]c3ccccc23)C(=O)N[C@@H](CCC(N)=O)C(N)=O)NC(=O)[C@H](C(C)C)NC(=O)[C@H](Cc2ccccc2)NC(=O)[C@H](C)NC(=O)[C@H](C)NC(=O)[C@H](CC(=O)O)NC(=O)[C@H](CC(=O)O)NC1=O [I-37, Ac-Phe-Asp-Ala-R5-Asp-Asp-Ala-Ala-Phe-Val-SdN-Phe-Trp-Gln-NH2] | 1.16 | 
2 | CC(=O)N[C@@H](Cc1ccccc1)C(=O)N[C@@H](CC(=O)O)C(=O)N[C@@H](C)C(=O)NC12CN(C1)C(=O)OCC=CCCCCC[C@@](C)(C(=O)N[C@@H](Cc1ccccc1)C(=O)N[C@@H](Cc1c[nH]c3ccccc13)C(=O)N[C@@H](CCC(N)=O)C(N)=O)NC(=O)[C@H](C(C)C)NC(=O)[C@H](Cc1ccccc1)NC(=O)[C@H](C)NC(=O)[C@H](C)NC(=O)[C@H](CC(=O)O)NC(=O)[C@H](CC(=O)O)NC2=O [I-33, Ac-Phe-Asp-Ala-Az-Asp-Asp-Ala-Ala-Phe-Val-S7-Phe-Trp-Gln-NH2] |  | 1.228
3 | CC(=O)N[C@@H](Cc1ccccc1)C(=O)N[C@@H](CC(=O)O)C(=O)N[C@@H](C)C(=O)N[C@]1(C)CCCCCCC=CCOC(=O)N2CC[C@@](C(=O)N[C@@H](Cc3ccccc3)C(=O)N[C@@H](Cc3c[nH]c4ccccc34)C(=O)N[C@@H](CCC(N)=O)C(N)=O)(C2)NC(=O)[C@H](C(C)C)NC(=O)[C@H](Cc2ccccc2)NC(=O)[C@H](C)NC(=O)[C@H](C)NC(=O)[C@H](CCC(C)C)NC(=O)[C@H](CC(=O)O)NC1=O (single isomer, unassigned) [I-18, Ac-Phe-Asp-Ala-R8-Asp-hLeu-Ala-Ala-Phe-Val-PyrS-Phe-Trp-Gln-NH2] |  | 2.108
4 | CC(=O)N1CCC[C@]12CC=CCCCC1(CCCC=CCCCCCC[C@@](C)(C(=O)N[C@@H](Cc3ccccc3)C(=O)N[C@@H](Cc3csc4ccccc34)C(=O)N(C)[C@@H](Cc3cnc[nH]3)C(N)=O)NC(=O)[C@H](CC(N)=O)NC(=O)[C@H](Cc3ccccc3)NC(=O)[C@H](C)NC(=O)[C@H](C)NC(=O)[C@H](CCC(=O)O)NC(=O)[C@H](CC(=O)O)NC1=O)NC(=O)[C@H](CC(C)C)NC(=O)[C@H](CC(=O)O)NC2=O (stereo partly drawn) [I-746, Ac-PL3-Asp-Leu-B5-Asp-Glu-Ala-Ala-Phe-Asn-S8-Phe-BztA-NMeHis-NH2] |  | 2.372
5 | CC(=O)N[C@@H](Cc1ccccc1)C(=O)N[C@@H](CC(=O)O)C(=O)N[C@@H](C)C(=O)N[C@]1(C)CCCCCCC=CCOC(=O)N2CC[C@@](C(=O)N[C@@H](Cc3ccccc3)C(=O)N[C@@H](Cc3c[nH]c4ccccc34)C(=O)N[C@@H](CCC(N)=O)C(N)=O)(C2)NC(=O)[C@H](C(C)C)NC(=O)[C@H](Cc2ccccc2)NC(=O)[C@H](C)NC(=O)[C@H](C)NC(=O)[C@@](C)(Cc2ccccc2)NC(=O)[C@H](CC(=O)O)NC1=O (single isomer, unassigned) [I-56, Ac-Phe-Asp-Ala-R8-Asp-aMeDF-Ala-Ala-Phe-Val-PyrS-Phe-Trp-Gln-NH2] | 2.16 | 
6 | CC(=O)N1CCC[C@]12CC=CCCCC1(CCCC=CCCCCCC[C@@](C)(C(=O)N[C@@H](Cc3ccccc3)C(=O)N[C@@H](Cc3c[nH]c4ccccc34)C(=O)N[C@@H](CCC(N)=O)C(N)=O)NC(=O)[C@H](C(C)C)NC(=O)[C@H](Cc3cccc(Cl)c3)NC(=O)[C@H](C)NC(=O)[C@H](C)NC(=O)[C@H](CC(=O)O)NC(=O)[C@H](CC(=O)O)NC1=O)NC(=O)[C@H](C)NC(=O)[C@H](CC(=O)O)NC2=O (stereo partly drawn) [I-306, Ac-PL3-Asp-Ala-B5-Asp-Asp-Ala-Ala-3C1F-Val-S8-Phe-Trp-Gln-NH2] |  | 2.03
7 | CC(=O)N[C@@H](Cc1ccccc1)C(=O)N[C@@H](CC(=O)O)C(=O)N[C@@H](C)C(=O)N[C@]1(C)CCCCCCC=CCOC(=O)N2CC[C@@](C(=O)N[C@@H](CC(=O)O)C(=O)N[C@@H](Cc3c[nH]c4ccccc34)C(=O)N[C@@H](CCC(N)=O)C(N)=O)(C2)NC(=O)[C@H](C(C)C)NC(=O)[C@H](Cc2ccccc2)NC(=O)[C@H](C)NC(=O)[C@H](C)NC(=O)[C@H](CC(=O)O)NC(=O)[C@H](CC(=O)O)NC1=O [I-121, Ac-Phe-Asp-Ala-R8-Asp-Asp-Ala-Ala-Phe-Val-PyrS-Asp-Trp-Gln-NH2] |  | 0.825
8 | CC(=O)N[C@@H](Cc1ccccc1)C(=O)N[C@@H](CC(=O)O)C(=O)N[C@@H](C)C(=O)N[C@]1(C)CCCCCCC=CCOC(=O)N2CC[C@@](C(=O)N[C@@H](Cc3ccccc3)C(=O)N[C@@H](Cc3c[nH]c4ccccc34)C(=O)N[C@@H](CCC(N)=O)C(N)=O)(C2)NC(=O)[C@H](C(C)C)NC(=O)[C@H](Cc2ccccc2)NC(=O)[C@H](CCCC(=O)O)NC(=O)[C@H](C)NC(=O)[C@H](CC(=O)O)NC(=O)[C@H](CC(=O)O)NC1=O [I-24, Ac-Phe-Asp-Ala-R8-Asp-Asp-Ala-Aad-Phe-Val-PyrS-Phe-Trp-Gln-NH2] |  | 0.977
9 | CC(=O)N1CCC[C@]12CC=CCCCC1(CCCC=CCCCCCC[C@@](C)(C(=O)N[C@@H](Cc3ccccc3)C(=O)N[C@@H](Cc3c[nH]c4ccccc34)C(=O)N[C@@H](CCC(N)=O)C(N)=O)NC(=O)[C@H](C(C)C)NC(=O)[C@H](Cc3ccccc3)NC(=O)[C@H](C)NC(=O)[C@H](C)NC(=O)[C@H](CC(=O)O)NC(=O)[C@H](CCC(=O)O)NC1=O)NC(=O)[C@H](C)NC(=O)[C@H](CC(=O)O)NC2=O (stereo partly drawn) [I-281, Ac-PL3-Asp-Ala-B5-Glu-Asp-Ala-Ala-Phe-Val-S8-Phe-Trp-Gln-NH2] |  | 2.2
10 | CC(=O)N[C@@H](Cc1ccccc1)C(=O)N[C@@H](CC(=O)O)C(=O)N[C@@H](C)C(=O)N[C@]1(C)CCCCCCC=CCOC(=O)N2CC[C@@](C(=O)N[C@@H](Cc3ccccc3)C(=O)N[C@@H](Cc3c[nH]c4ccccc34)C(=O)N[C@@H](CCC(N)=O)C(N)=O)(C2)NC(=O)[C@H](C(C)C)NC(=O)[C@H](Cc2ccccc2)NC(=O)[C@H](C)NC(=O)[C@H](C)NC(=O)[C@H](Cc2ccc(C(=O)O)cc2)NC(=O)[C@H](CC(=O)O)NC1=O (single isomer, unassigned) [I-7, Ac-Phe-Asp-Ala-R8-Asp-4COOHF-Ala-Ala-Phe-Val-PyrS-Phe-Trp-Gln-NH2] | 1.32 | 
11 | CC(=O)N[C@@H](Cc1ccccc1)C(=O)N[C@@H](CC(=O)O)C(=O)N[C@@H](C)C(=O)N[C@]1(C)CCCCCCC=CCOC(=O)N2CC[C@@](C(=O)N[C@@H](Cc3ccncc3)C(=O)N[C@@H](Cc3c[nH]c4ccccc34)C(=O)N[C@@H](CCC(N)=O)C(N)=O)(C2)NC(=O)[C@H](C(C)C)NC(=O)[C@H](Cc2ccccc2)NC(=O)[C@H](C)NC(=O)[C@H](C)NC(=O)[C@H](CC(=O)O)NC(=O)[C@H](CC(=O)O)NC1=O (single isomer, unassigned) [I-85, Ac-Phe-Asp-Ala-R8-Asp-Asp-Ala-Ala-Phe-Val-PyrS-4PyrA-Trp-Gln-NH2] |  | 0.998
12 | CC(=O)N[C@@H](Cc1ccccc1)C(=O)N[C@@H](CC(=O)O)C(=O)N[C@@H](C)C(=O)N[C@]1(C)CCCCCCC=CCOC(=O)N2CC[C@@](C(=O)N[C@@H](Cc3ccccc3)C(=O)N[C@@H](Cc3c[nH]c4ccccc34)C(=O)N[C@@H](CCC(N)=O)C(N)=O)(C2)NC(=O)[C@H](C(C)C)NC(=O)[C@H](Cc2ccccc2)NC(=O)[C@H](C)NC(=O)[C@H](C)NC(=O)[C@H](Cc2cccnc2)NC(=O)[C@H](CC(=O)O)NC1=O (single isomer, unassigned) [I-10, Ac-Phe-Asp-Ala-R8-Asp-3PyrA-Ala-Ala-Phe-Val-PyrS-Phe-Trp-Gln-NH2] |  | 1.661
13 | CC(=O)N1CCC[C@]12CC=CCCCC1(CCCC=CCCCCCC[C@@](C)(C(=O)N[C@@H](Cc3ccccc3)C(=O)N[C@@H](Cc3c[nH]c4ccccc34)C(=O)N[C@@H](CCC(N)=O)C(N)=O)NC(=O)[C@H](C(C)C)NC(=O)[C@H](Cc3ccccc3)NC(=O)[C@H](C)NC(=O)[C@H](C)NC(=O)[C@H](Cc3c[nH]cn3)NC(=O)[C@H](CC(=O)O)NC1=O)NC(=O)[C@H](C)NC(=O)[C@H](CC(=O)O)NC2=O (stereo partly drawn) [I-304, Ac-PL3-Asp-Ala-B5-Asp-His-Ala-Ala-Phe-Val-S8-Phe-Trp-Gln-NH2] |  | 2.339
14 | CC(=O)N[C@@H](Cc1ccccc1)C(=O)N[C@@H](CC(=O)O)C(=O)N[C@@H](C)C(=O)N[C@]1(C)CCN(C)C(=O)OCC=CCCCCC[C@@](C)(C(=O)N[C@@H](Cc2ccccc2)C(=O)N[C@@H](Cc2c[nH]c3ccccc23)C(=O)N[C@@H](CCC(N)=O)C(N)=O)NC(=O)[C@H](C(C)C)NC(=O)[C@H](Cc2ccccc2)NC(=O)[C@H](C)NC(=O)[C@H](C)NC(=O)[C@H](CC(=O)O)NC(=O)[C@H](CC(=O)O)NC1=O (single isomer, unassigned) [I-2, Ac-Phe-Asp-Ala-RdN-Asp-Asp-Ala-Ala-Phe-Val-S7-Phe-Trp-Gln-NH2] |  | 1.246
15 | CC(=O)N[C@@H](Cc1ccccc1)C(=O)N[C@@H](CC(=O)O)C(=O)N[C@@H](C)C(=O)N[C@]1(C)CN(C)C(=O)OCC=CCCCCC[C@@](C)(C(=O)N[C@@H](Cc2ccccc2)C(=O)N[C@@H](Cc2c[nH]c3ccccc23)C(=O)N[C@@H](CCC(N)=O)C(N)=O)NC(=O)[C@H](C(C)C)NC(=O)[C@H](Cc2ccccc2)NC(=O)[C@H](C)NC(=O)[C@H](C)NC(=O)[C@H](CC(=O)O)NC(=O)[C@H](CC(=O)O)NC1=O (single isomer, unassigned) [I-46, Ac-Phe-Asp-Ala-RgN-Asp-Asp-Ala-Ala-Phe-Val-S7-Phe-Trp-Gln-NH2] |  | 1.205
16 | CC(=O)N1CCC[C@]12CC=CCCCC1(CCCC=CCCCCCC[C@@](C)(C(=O)N[C@@H](Cc3ccccc3)C(=O)N[C@@H](Cc3c[nH]c4ccccc34)C(=O)N[C@@H](CCC(N)=O)C(N)=O)NC(=O)[C@H](C(C)C)NC(=O)[C@H](Cc3ccccc3)NC(=O)[C@H](C)NC(=O)[C@H](C)NC(=O)[C@H](CCC(=O)O)NC(=O)[C@H](CC(=O)O)NC1=O)NC(=O)[C@H](C)NC(=O)[C@H](Cc1cccc(F)c1)NC2=O (stereo partly drawn) [I-204, Ac-PL3-3FF-Ala-B5-Asp-Glu-Ala-Ala-Phe-Val-S8-Phe-Trp-Gln-NH2] | 2.98 | 
17 | CC(=O)N[C@@H](Cc1ccccc1)C(=O)N[C@@H](CC(=O)O)C(=O)N[C@@H](C)C(=O)N[C@]1(C)CCCCCCC=CCOC(=O)N2CC[C@@](C(=O)N[C@@H](Cc3ccccc3)C(=O)N[C@@H](Cc3c[nH]c4ccccc34)C(=O)N[C@@H](CCC(N)=O)C(N)=O)(C2)NC(=O)[C@H](C(C)C)NC(=O)[C@H](Cc2ccccn2)NC(=O)[C@H](C)NC(=O)[C@H](C)NC(=O)[C@H](CC(=O)O)NC(=O)[C@H](CC(=O)O)NC1=O [I-86, Ac-Phe-Asp-Ala-R8-Asp-Asp-Ala-Ala-2PyrA-Val-PyrS-Phe-Trp-Gln-NH2] | 1.24 | 
